Consider four compounds from patent publication US5801149A, “Inhibition of signal transduction molecules” (Joslin D-abetes Center, Inc., priority 1995, dated 1998).

Series [1] deals with SH2 domains of P13-kinase P85. The series is described as follows: SH2 domain binding of GXVPML analog peptides (FIG. 2). To be noted: peptide GXVPML, X varied. The text has this: (§1) In these experiments, one or both hydrogen atoms were replaced on Pmp at the carbon position between the phenyl ring and the phosphonate.
Series [2] is described as follows: Amino acid side chain pK titration. The class given is physicochemical. The settings on record: 0.2M solution titrated with 6N HCl.
A further series concerns the target T1, Rat PTPase 1B (Rattus norvegicus, UniProt P20417).
T1 construct: cloning the full-length cDNA into the bacterial expression vector, PKK233-2; made in house; host or cells: bacteria (vector PKK233-2)
T1 sequence (P20417 1-432): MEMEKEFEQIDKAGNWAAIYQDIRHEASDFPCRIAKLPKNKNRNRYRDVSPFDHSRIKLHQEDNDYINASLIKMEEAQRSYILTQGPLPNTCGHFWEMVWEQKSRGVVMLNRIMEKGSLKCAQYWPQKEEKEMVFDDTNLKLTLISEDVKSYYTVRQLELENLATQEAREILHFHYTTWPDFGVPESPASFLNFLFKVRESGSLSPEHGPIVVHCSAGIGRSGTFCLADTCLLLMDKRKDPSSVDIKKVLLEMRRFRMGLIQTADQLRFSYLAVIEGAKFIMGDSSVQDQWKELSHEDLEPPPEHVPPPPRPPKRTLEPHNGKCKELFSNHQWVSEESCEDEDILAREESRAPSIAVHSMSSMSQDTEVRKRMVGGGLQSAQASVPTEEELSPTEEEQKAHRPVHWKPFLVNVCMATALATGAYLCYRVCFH
The series is described as follows: PTPase 1B peptide dephosphorylation (Km) and inhibition (Ki). The class given is biochemical. On the procedure: The phosphopeptides were used as substrates of PTPase 1B, a single catalytic domain PTPase with a […] tissue distribution (Hunter et al., 1989, cell 58:1013). Rat PTPase 1B (Guan et al., 1990, Proc. Natl., Acad. Sci. USA 87:1501) was obtained by PCR and cloning the full-length cDNA into the bacterial expression vector, PKK233-2.
Sequence specificity for peptide dephosphorylation was observed, with apparent Km values ranging from <2 μM for the phospho-middle t sequence to >2 mM for pTyr itself (Table 3).
Several phosphono peptides were tested for the ability to inhibit PTPase 1B activity and KI values determined by methods known to those skilled in the art.

For series [3], the target named is T2, association between pp60^c-grc /mT and PI 3-kinase (Mus musculus, UniProt P26450).
T2 construct: endogenous in cells; host or cells: Balb/3T3 cells (PI 3-kinase); pp60c-src/mT from baculovirus-infected Sf9 cells
T2 sequence (P26450 whole entry): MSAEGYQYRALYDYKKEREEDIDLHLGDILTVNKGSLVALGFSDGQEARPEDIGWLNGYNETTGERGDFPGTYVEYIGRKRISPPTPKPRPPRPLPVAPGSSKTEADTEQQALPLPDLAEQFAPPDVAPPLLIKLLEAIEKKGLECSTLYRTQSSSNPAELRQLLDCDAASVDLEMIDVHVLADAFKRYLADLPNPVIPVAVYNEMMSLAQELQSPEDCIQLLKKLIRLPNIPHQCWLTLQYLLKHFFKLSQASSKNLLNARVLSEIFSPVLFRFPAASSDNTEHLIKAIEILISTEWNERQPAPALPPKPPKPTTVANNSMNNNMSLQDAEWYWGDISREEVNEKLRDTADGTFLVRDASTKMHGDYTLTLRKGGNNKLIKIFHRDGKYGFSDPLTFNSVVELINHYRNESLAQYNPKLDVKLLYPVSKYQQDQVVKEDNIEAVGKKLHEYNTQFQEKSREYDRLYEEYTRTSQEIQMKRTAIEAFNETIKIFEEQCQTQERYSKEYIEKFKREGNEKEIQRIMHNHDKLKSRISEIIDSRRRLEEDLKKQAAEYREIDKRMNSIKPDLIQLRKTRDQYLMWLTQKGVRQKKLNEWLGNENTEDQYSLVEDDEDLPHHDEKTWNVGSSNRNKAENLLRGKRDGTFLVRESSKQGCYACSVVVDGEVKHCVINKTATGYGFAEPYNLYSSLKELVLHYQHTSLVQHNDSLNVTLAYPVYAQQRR
The series is described as follows: Inhibition of in vitro association of cytosolic PI 3-kinase activity (Balb/3T3 lysate) with immunopurified pp60^c-grc /mT. Format: biochemical. To be noted: absence of sodium vanadate (active PTPases); peptide at about ID50. The text has this:
Inhibition of the in vitro Association of PI 3-Kinase Activity With Immunopurified pp60^c-grc /mT. Baculovirus-expressed pp60^c-grc /mT complex was immunopurified from infection Sf9 insect cell (Piwnica-Worms et al., 1990, J. Virol. 64:61-68) lysates as described (Auger et al., 1990, 1992, J. BioL Chem. 267:5408-5415). PI 3-kinase activity was obtained directly from crude Balb/3T3 cell lysates as follows. After washing confluent 10 cm dishes with phosphate-buffered saline, Balb/3T3 cells were treated with lysis buffer (137 mM NaCI, 20 mM Hepes, 1 mM MgCl2, 1 mM CaCl2, 10% glycerol, 1% Nonidet P-40, and 1 μg/ml each of leupeptin, pepstatin A and aprotinin, pH 7.25) in the presence or absence of 0.15 mM sodium vanadate. Following a 10 min incubation with lysis buffer, cells were scrape-harvested and particulate debris was removed from the lysates by centrifugation at 12,000×g for 5 min. at 4° C. Varying concentrations of peptides were added directly to the lysates and incubated at 4° C. for 30 min.
Lysate-peptide mixtures were combined with protein A-Sepharose beads containing immunoprecipitated pp60^c-grc /mT complexes. After washing, the beads were used to catalyze phosphatidylinositol phosphorylation as described (Whitman et al., 1985, Nature 315:239-242; Auger et al., 1989, Cell 57:167-175, 1990, Methods in Inositide Res. pp. 159-166). […]

Series [4] addresses T3, p85 SH2 domains (SH2/GST fusion protein) (Homo sapiens, UniProt P27986).
T3 construct: GST
The series is described as follows: Biospecific interaction analysis of binding to p85 SH2 domains. The settings on record: steady-state extrapolation, Scatchard-like analysis. On the procedure:
Therefore, mT-pY315 binding to p85 SH2 domains was analyzed using biospecific interaction analysis as previously described to obtain a more accurate estimate for KD. Series of data were obtained during real-time binding experiments with different concentrations of SH2/GST fusion protein (data not shown).

The next series addresses SH2 domain of Src (Homo sapiens, UniProt P12931).
Description: as §1

Non-standard residues stand in square brackets, D forms with d. Residues, ends and D or L forms follow the SMILES beside them. No end group written: not given here. Pmp = N[C@@H](Cc1ccc(CP(=O)(O)O)cc1)C(=O)O; pY = N[C@@H](Cc1ccc(OP(=O)(O)O)cc1)C(=O)O

T3 sequence (P27986 333-428 limits assumed): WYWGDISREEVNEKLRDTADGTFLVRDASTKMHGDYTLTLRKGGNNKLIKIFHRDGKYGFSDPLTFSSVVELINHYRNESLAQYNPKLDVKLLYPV
SH2 domain of Src, sequence (P12931 151-248 limits assumed): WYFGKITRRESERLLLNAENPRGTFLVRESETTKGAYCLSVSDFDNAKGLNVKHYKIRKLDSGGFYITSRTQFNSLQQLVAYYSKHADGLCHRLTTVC

In the case of “GXVPML (Pmp): peptide GXVPML (SEQ ID NO: 45) with X = Pmp (G[Pmp]VPML)”, the ED50 in series [1] came to 1.0 ± 0.1 µM.
For the compound `N[C@@H](Cc1ccc(OP(=O)(O)O)cc1)C(=O)O` [phosphotyrosine, reference compound], the “side chain pK3” value in series [2] came out at 5.7. Moreover, the Km at Rat PTPase 1B (apparent Km as substrate) is > 2000 µM; at Rat PTPase 1B (apparent Km, phosphotyrosine and pY-peptides as substrates), > 2000 µM.
For `CSCC[C@H](NC(=O)[C@@H]1CCCN1C(=O)[C@H](CCSC)NC(=O)[C@H](Cc1ccc(OP(=O)(O)O)cc1)NC(=O)[C@H](CCC(=O)O)NC(=O)[C@H](CCC(=O)O)NC(=O)[C@@H](N)CCC(=O)O)C(=O)N[C@@H](CCC(=O)O)C(=O)N[C@@H](CC(=O)O)C(=O)N[C@@H](CC(C)C)C(=O)N[C@@H](Cc1ccc(O)cc1)C(=O)O` [mT-pY315, EEEpYMPMEDLY] (H-EEE[pY]MPMEDLY-OH), the “inhibition of association between pp60^c-grc /mT and PI 3-kinase” value in series [3] is recorded as “obliterated in the absence of vanadate”. For the same compound, in series [4], the “estimated KD” value was 0.01 µM.
On to `CC[C@H](C)[C@H](NC(=O)[C@H](CCC(=O)O)NC(=O)[C@H](CCC(=O)O)NC(=O)[C@H](Cc1ccc(OP(=O)(O)O)cc1)NC(=O)[C@H](CCC(N)=O)NC(C)=O)C(=O)N1CCC[C@H]1C(N)=O` [QXEEIP (pTyr)] (Ac-Q[pY]EEIP-NH2), for which the IC50 on SH2 domain of Src stood at 5.7 ± 0.7 µM.
